Assays:
ADAR1 = target: T1, ADAR1 (Homo sapiens, UniProt P55265); test: ADAR1 Inhibition Assay (IFN fold-induction, Quanti-Luc luminescence, p110 KO A549 dual cells); assay type: cell-based; conditions: IFN fold-induction vs DMSO, 24 and 48 h
T1 construct: endogenous in cells; host or cells: p110 KO A549 dual cells
T1 sequence (P55265 1-1226): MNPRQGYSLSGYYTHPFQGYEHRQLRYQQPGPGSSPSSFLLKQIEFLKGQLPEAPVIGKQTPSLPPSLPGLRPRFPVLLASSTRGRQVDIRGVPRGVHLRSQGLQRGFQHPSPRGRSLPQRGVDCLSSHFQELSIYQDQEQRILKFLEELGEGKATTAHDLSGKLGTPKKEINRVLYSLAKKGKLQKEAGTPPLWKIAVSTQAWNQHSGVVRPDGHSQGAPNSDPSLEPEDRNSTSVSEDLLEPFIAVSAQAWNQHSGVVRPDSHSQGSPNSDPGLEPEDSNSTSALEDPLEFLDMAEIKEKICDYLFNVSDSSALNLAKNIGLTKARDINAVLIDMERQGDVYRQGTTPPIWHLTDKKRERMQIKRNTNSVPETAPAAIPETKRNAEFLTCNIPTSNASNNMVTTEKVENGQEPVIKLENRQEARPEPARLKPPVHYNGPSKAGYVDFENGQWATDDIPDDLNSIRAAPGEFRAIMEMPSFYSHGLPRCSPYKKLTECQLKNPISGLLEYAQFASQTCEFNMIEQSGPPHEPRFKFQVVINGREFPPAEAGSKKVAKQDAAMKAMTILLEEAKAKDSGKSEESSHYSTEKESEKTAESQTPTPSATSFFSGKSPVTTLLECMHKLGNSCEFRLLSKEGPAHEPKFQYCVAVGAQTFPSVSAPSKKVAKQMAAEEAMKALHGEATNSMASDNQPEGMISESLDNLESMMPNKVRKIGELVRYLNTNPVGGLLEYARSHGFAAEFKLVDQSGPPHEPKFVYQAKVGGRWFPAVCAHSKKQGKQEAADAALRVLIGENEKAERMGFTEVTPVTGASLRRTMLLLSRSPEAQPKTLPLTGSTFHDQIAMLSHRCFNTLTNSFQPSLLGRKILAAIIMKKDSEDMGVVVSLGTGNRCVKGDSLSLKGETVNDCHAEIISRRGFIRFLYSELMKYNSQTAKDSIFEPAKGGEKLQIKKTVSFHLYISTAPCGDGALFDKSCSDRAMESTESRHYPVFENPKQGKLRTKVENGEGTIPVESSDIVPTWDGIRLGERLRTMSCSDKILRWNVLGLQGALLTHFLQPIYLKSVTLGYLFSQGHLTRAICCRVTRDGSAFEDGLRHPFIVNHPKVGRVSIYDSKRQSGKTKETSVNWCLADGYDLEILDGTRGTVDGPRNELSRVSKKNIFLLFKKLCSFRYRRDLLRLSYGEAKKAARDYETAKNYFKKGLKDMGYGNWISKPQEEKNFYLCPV
Outline: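 EC50 derived from IFN fold-induction, calculated as sample RLU over average DMSO RLU. Luminescence measured by Quanti-Luc on samples taken after 24 and 48 h of compound exposure (1% DMSO final, 37 °C, 5% CO2). Cells were p110 KO A549 dual, seeded at 20,000 per well in supplemented DMEM.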

Zα domain of ADAR1 p150 = target: T2, Zα domain of ADAR1 p150 (Homo sapiens, UniProt P55265); test: SPR binding assay; conditions: 6× his tag Zα domain immobilized on CM5 chip, analyte 0-25 μM
T2 construct: 10 μg/ml of Zα domain of ADAR1 was immobilized on CM5 chip using anti-HIS antibody; made in house
T2 sequence (P55265 133-199 limits assumed): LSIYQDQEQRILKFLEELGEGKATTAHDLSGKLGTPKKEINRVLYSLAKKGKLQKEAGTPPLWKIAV
Protocol: 6× his tag Za domain of ADAR1 p150 was purified using bacterial purification system. Protein was isolated from supernatant of cell lysate using Ni-NTA resin. For binding assay using SPR, 10 μg/ml of Zα domain of ADAR1 was immobilized on CM5 chip using anti-HIS antibody. Binding was quantified using the following condition below: • Analyte: 25, 12.5, 6.25, 3.125, 1.56, 0.78, 0 μM • Contact time—60 seconds, • Dissociation time—320 seconds • Flow rate—30 μL/minute Running buffer-PBSP+5% DMSO • After curve fitting, Kd values for synthesized compounds was quantified using the instrument software.

| Structure (SMILES) | EC50 (ADAR1) | Kd (Zα domain of ADAR1 p150) |
| --- | --- | --- |
| CCOC(=O)c1nc(-c2ccccc2)sc1NC(=O)COC(=O)c1cccc(NS(C)(=O)=O)c1 [Compound 144] | > 100 µM | ≤ 1 µM |
| CCOC(=O)c1cc(-c2ccccc2)sc1NC(=O)COc1cccc(NS(C)(=O)=O)c1 [Compound 147] | > 100 µM | ≤ 1 µM |
| CCOC(=O)c1cc(-c2ccccc2)sc1NC(=O)COC(=O)C1CCCC(NS(C)(=O)=O)C1 (centres unmarked) [Compound 150] | > 100 µM | > 25 µM |
| CCOC(=O)c1cc(-c2ccccc2)sc1NC(=O)COC(=O)c1cccc(NS(=O)(=O)C2CC2)c1 [Compound 161] | ≤ 25 µM | > 25 µM |
| CCOC(=O)c1cc(-c2ccccc2)sc1NC(=O)COC(=O)c1ccc2c(c1)OCCO2 [Compound 163] | > 100 µM | ≤ 1 µM |
| CCOC(=O)c1cc(-c2ccccc2)ccc1NC(=O)COC(=O)c1cccc(NS(C)(=O)=O)c1 [Compound 171] | > 100 µM | > 25 µM |
| CCOC(=O)c1cc(-c2ccccc2)sc1NC(=O)COC(=O)C1CN(S(C)(=O)=O)CCO1 (centres unmarked) [Compound 172] | > 100 µM | ≤ 1 µM |
| CCOC(=O)c1cc(-c2ccccc2)sc1NC(=O)CN(C)Cc1cccc(NS(C)(=O)=O)c1 [Compound 180] | > 100 µM | ≤ 1 µM |
| CS(=O)(=O)Nc1cccc(C(=O)OCC(=O)N2CCN(c3ccccc3)C2=O)c1 [Compound 220] | > 100 µM | ≤ 1 µM |
| CS(=O)(=O)Nc1cccc(C(=O)OCc2nc(=O)c3cc(-c4ccccc4)sc3[nH]2)c1 [Compound 241] | > 100 µM | ≤ 1 µM |
| CCOC(=O)c1cc(-c2ccccc2)sc1NC(=O)c1ccc(-c2cccc(NS(C)(=O)=O)c2)nc1 [Compound 253] | > 100 µM | ≤ 1 µM |
| CS(=O)(=O)Nc1cccc(C(=O)OCC(=O)Nc2nc3ccccc3o2)c1 [Compound 270] | > 100 µM | ≤ 1 µM |
| CCOC(=O)c1cc(-c2ccccc2)sc1NC(=O)Cn1cnc(-c2cccc(NS(C)(=O)=O)c2)n1 [Compound 274] | > 100 µM | ≤ 1 µM |
| CCOC(=O)c1cc(-c2ccccc2)sc1C(=O)CNC(=O)c1cccc(NS(C)(=O)=O)c1 [Compound 292] | > 100 µM | ≤ 1 µM |
| CCOC(=O)c1cc(-c2ccccc2)sc1-c1cccc(NC(=O)c2cccc(NS(C)(=O)=O)c2)c1 [Compound 293] | > 100 µM | > 25 µM |
| CCOC(=O)c1cc(-c2ccccc2)sc1C1=CCN(C(=O)c2cccc(NS(C)(=O)=O)c2)CC1 [Compound 294] | > 100 µM | ≤ 1 µM |
| CCOC(=O)c1cc(-c2ccccc2)sc1NC(=O)CNC(=O)Cc1cccc(NS(C)(=O)=O)c1 [Compound 310] | ≤ 25 µM | ≤ 1 µM |
| CCOC(=O)c1cc(-c2ccccc2)sc1NC(=O)CCS(=O)(=O)c1cccc(NS(C)(=O)=O)c1 [Compound 321] | > 100 µM | ≤ 1 µM |
| CCOC(=O)c1cc(-c2ccccc2)sc1NC(=O)COC(=O)c1cccc(P(=O)(O)O)c1 [Compound 325] | > 100 µM | ≤ 1 µM |
| CCOC(=O)c1cc(-c2ccccc2)sc1NC(=O)CNC(=O)Cc1cccc(C(F)(F)F)c1 [Compound 326] | > 100 µM | ≤ 1 µM |
| CCOC(=O)c1cc(-c2ccccc2)sc1NC(=O)CNC(=O)Cc1ccc(S(C)(=O)=O)cc1 [Compound 327] | > 100 µM | ≤ 1 µM |
| CCOC(=O)c1cc(-c2ccccc2)sc1NC(=O)CNC(=O)Cc1cccc(OC(F)(F)F)c1 [Compound 328] | > 100 µM | ≤ 1 µM |

From patent publication US20260200890A1, “ADAR1 INHIBITORS AND METHODS OF USING THE SAME” (AVAMMUNE THERAPEUTICS INC., priority 2022, published 2026)
